Legend:
T-47D = assay: NCI five-dose SRB growth assay; type: cell-based; conditions: Homo sapiens, T47D; T-47D (Breast Cancer), 48 h
NCI-H460 = assay: NCI five-dose SRB growth assay; type: cell-based; conditions: Homo sapiens; NCI-H460 (Non-Small Cell Lung Cancer), 48 h
KM12 [1] = assay: NCI five-dose SRB growth assay; type: cell-based; conditions: Homo sapiens; KM12 (Colon Cancer), 48 h
OVCAR-4 = assay: NCI five-dose SRB growth assay; type: cell-based; conditions: Homo sapiens; OVCAR-4 (Ovarian Cancer), 48 h
CNS cancer = assay: NCI five-dose SRB assay, subpanel average; conditions: 48 h; for GI50 / CC50: Homo sapiens; for GI50: read-out: GI50 (median growth inhibitory); for CC50: read-out: LC50 (median lethal); for TGI (total growth inhibitory): average over CNS cancer subpanel, five concentrations
IGROV1 = assay: NCI five-dose SRB growth assay; type: cell-based; conditions: Homo sapiens, IGROV-1; IGROV1 (Ovarian Cancer), 48 h
prostate cancer = assay: NCI five-dose SRB assay, subpanel average; conditions: 48 h; for GI50 / CC50: Homo sapiens; for GI50: read-out: GI50 (median growth inhibitory); for CC50: read-out: LC50 (median lethal); for TGI (total growth inhibitory): average over prostate cancer subpanel, five concentrations
HT29 = assay: NCI five-dose SRB growth assay; type: cell-based; conditions: Homo sapiens, HT-29; HT29 (Colon Cancer), 48 h
SK-MEL-5 = assay: NCI five-dose SRB growth assay; type: cell-based; conditions: Homo sapiens; SK-MEL-5 (Melanoma), 48 h
A498 = assay: NCI five-dose SRB growth assay; type: cell-based; conditions: Homo sapiens; A498 (Renal Cancer), 48 h
SNB-19 = assay: NCI five-dose SRB growth assay; type: cell-based; conditions: Homo sapiens; SNB-19 (CNS Cancer), 48 h
MALME-3M = assay: NCI one-dose SRB growth assay; type: cell-based; conditions: Homo sapiens; MALME-3M (Melanoma), 10^-5 M, 48 h; read-out: % Growth Inhibition (GI %)
How it was run: (§1)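 Compounds tested at a single concentration of 10^-5M on cultured human tumor cells for 48 h. Sulforhodamine B protein staining read spectrophotometrically; values are growth percentage of treated cells relative to untreated controls.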

KM12 [2] = assay: NCI one-dose SRB growth assay; type: cell-based; conditions: Homo sapiens; KM12 (Colon Cancer), 10^-5 M, 48 h; read-out: % Growth Inhibition (GI %)
How it was run: as §1

U251 = assay: NCI one-dose SRB growth assay; type: cell-based; conditions: Homo sapiens, U-251; U251 (CNS Cancer), 10^-5 M, 48 h; read-out: % Growth Inhibition (GI %)
How it was run: as §1

MDA-MB-435 = assay: NCI one-dose SRB growth assay; type: cell-based; conditions: Homo sapiens; MDA-MB-435 (Melanoma), 10^-5 M, 48 h; read-out: % Growth Inhibition (GI %)
How it was run: as §1

PRMI-8226 = assay: NCI one-dose SRB growth assay; type: cell-based; conditions: Homo sapiens; PRMI-8226 (Leukemia), 10^-5 M, 48 h; read-out: % Growth Inhibition (GI %)
How it was run: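 SRB colorimetry after 48 h incubation with a 10^-5M single dose; growth % relative to untreated.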

OVCAR-3 = assay: NCI one-dose SRB growth assay; type: cell-based; conditions: Homo sapiens; OVCAR-3 (Ovarian Cancer), 10^-5 M, 48 h; read-out: % Growth Inhibition (GI %)
How it was run: as §1

UACC-62 = assay: NCI one-dose SRB growth assay; type: cell-based; conditions: Homo sapiens; UACC-62 (Melanoma), 10^-5 M, 48 h; read-out: % Growth Inhibition (GI %)
How it was run: as §1

MDA-MB-468 = assay: NCI one-dose SRB growth assay; type: cell-based; conditions: Homo sapiens; MDA-MB-468 (Breast Cancer), 10^-5 M, 48 h; read-out: % Growth Inhibition (GI %)
How it was run: as §1

SR = assay: NCI one-dose SRB growth assay; type: cell-based; conditions: Homo sapiens; SR (Leukemia), 10^-5 M, 48 h; read-out: % Growth Inhibition (GI %)
How it was run: as §1

RXF 393 = assay: NCI one-dose SRB growth assay; type: cell-based; conditions: Homo sapiens; RXF 393 (Renal Cancer), 10^-5 M, 48 h; read-out: % Growth Inhibition (GI %)
How it was run: as §1

[3] = test system: full panel of about 60 human tumor cell lines; assay: NCI five-dose SRB assay, full panel mean; conditions: 48 h; for CC50 / GI50: Homo sapiens; for CC50: 60 cell, read-out: LC50 MG-MID (Full panel mean-graph midpoint); for GI50: read-out: GI50 MG-MID (Full panel mean-graph midpoint); for TGI MG-MID (Full panel mean-graph midpoint): five concentrations
leukemia = assay: NCI five-dose SRB assay, subpanel average; conditions: 48 h; for GI50 / CC50: Homo sapiens; for GI50: read-out: GI50 (median growth inhibitory); for CC50: read-out: LC50 (median lethal); for TGI (total growth inhibitory): average over leukemia subpanel, five concentrations
COLO 205 = assay: NCI five-dose SRB growth assay; type: cell-based; conditions: Homo sapiens; COLO 205 (Colon Cancer), 48 h
CAKI-1 = assay: NCI five-dose SRB growth assay; type: cell-based; conditions: Homo sapiens; CAKI-1 (Renal Cancer), 48 h
SK-MEL-28 = assay: NCI five-dose SRB growth assay; type: cell-based; conditions: Homo sapiens; SK-MEL-28 (Melanoma), 48 h
breast cancer = assay: NCI five-dose SRB assay, subpanel average; conditions: 48 h; for GI50 / CC50: Homo sapiens; for GI50: read-out: GI50 (median growth inhibitory); for CC50: read-out: LC50 (median lethal); for TGI (total growth inhibitory): average over breast cancer subpanel, five concentrations
melanoma = assay: NCI five-dose SRB assay, subpanel average; conditions: 48 h; for GI50 / CC50: Homo sapiens; for GI50: read-out: GI50 (median growth inhibitory); for CC50: read-out: LC50 (median lethal); for TGI (total growth inhibitory): average over melanoma subpanel, five concentrations
NSC lung cancer = assay: NCI five-dose SRB assay, subpanel average; conditions: 48 h; for GI50 / CC50: Homo sapiens; for GI50: read-out: GI50 (median growth inhibitory); for CC50: read-out: LC50 (median lethal); for TGI (total growth inhibitory): average over NSC lung cancer subpanel, five concentrations

For CCn1cc(C(=O)O)c(=O)c2cc(F)c(N3CCN(S(=O)(=O)c4cccc5ccccc45)CC3)cc21 [Compound 7a], the GI50 (T-47D) was 3.35 µM, the GI50 (NCI-H460) was 3.43 µM and the GI50 (KM12 [1]) was 2.96 µM. For the same molecule, the GI50 (OVCAR-4) was 2.6 µM, the GI50 (CNS cancer) was 3.09 µM and the CC50 (CNS cancer) was > 100 µM. The “TGI (total growth inhibitory)” value (CNS cancer) was 63.40 µM, the GI50 (IGROV1) was 2.47 µM and the GI50 (prostate cancer) was 3.71 µM. The CC50 (prostate cancer) was > 100 µM, the “TGI (total growth inhibitory)” value (prostate cancer) was “c (Compounds showed values > 100µM)” and the GI50 (HT29) was 3.95 µM. It also gave a GI50 (SK-MEL-5) of 2.24 µM, a GI50 (A498) of 2.74 µM and a GI50 (SNB-19) of 3.47 µM. The inhibition at 10 µM (MALME-3M) was > 100%, the inhibition at 10 µM (KM12 [2]) was 88.3% and the inhibition at 10 µM (U251) was 85.8%. For the same molecule, the inhibition at 10 µM (MDA-MB-435) was 88.6%, the inhibition at 10 µM (PRMI-8226) was 93.5% and the inhibition at 10 µM (OVCAR-3) was > 100%. It also gave an inhibition at 10 µM (UACC-62) of 68.8%, an inhibition at 10 µM (MDA-MB-468) of 95.2% and an inhibition at 10 µM (SR) of 97.8%. It also gave an inhibition at 10 µM (RXF 393) of 71%, a CC50 [3] of 95.5 µM and a GI50 [3] of 3.09 µM. For the same molecule, the “TGI MG-MID (Full panel mean-graph midpoint)” value [3] was 29.51 µM, the GI50 (leukemia) was 3.48 µM and the CC50 (leukemia) was > 100 µM. For the same molecule, the “TGI (total growth inhibitory)” value (leukemia) was 63.22 µM, the GI50 (COLO 205) was 2.02 µM and the GI50 (CAKI-1) was 2.33 µM. The GI50 (SK-MEL-28) was 6.09 µM, the GI50 (breast cancer) was 2.81 µM and the CC50 (breast cancer) was > 100 µM. For the same molecule, the “TGI (total growth inhibitory)” value (breast cancer) was 38.49 µM, the GI50 (melanoma) was 3.2 µM and the CC50 (melanoma) was 99.7 µM. For the same molecule, the “TGI (total growth inhibitory)” value (melanoma) was 28.33 µM, the GI50 (NSC lung cancer) was 3.04 µM and the CC50 (NSC lung cancer) was > 100 µM. For the same molecule, the “TGI (total growth inhibitory)” value (NSC lung cancer) was 46.59 µM.
For CCn1cc(C(=O)O)c(=O)c2cc(F)c(N3CCN(S(=O)(=O)c4ccc(Cl)cc4Cl)CC3)cc21 [Compound 2a], the GI50 (T-47D) was 3.11 µM, the GI50 (NCI-H460) was 3.13 µM and the GI50 (KM12 [1]) was 3.42 µM. For the same molecule, the GI50 (OVCAR-4) was 2.58 µM, the GI50 (CNS cancer) was 3.03 µM and the CC50 (CNS cancer) was 77.2 µM. For the same molecule, the “TGI (total growth inhibitory)” value (CNS cancer) was 34.84 µM, the GI50 (IGROV1) was 2.33 µM and the GI50 (prostate cancer) was 2.62 µM. The CC50 (prostate cancer) was > 100 µM, the “TGI (total growth inhibitory)” value (prostate cancer) was 8.72 µM and the GI50 (HT29) was 3.63 µM. For the same molecule, the GI50 (SK-MEL-5) was 1.87 µM, the GI50 (A498) was 2.99 µM and the GI50 (SNB-19) was 3.07 µM. For the same molecule, the inhibition at 10 µM (MALME-3M) was > 100%, the inhibition at 10 µM (KM12 [2]) was 90.6% and the inhibition at 10 µM (U251) was 87.9%. For the same molecule, the inhibition at 10 µM (MDA-MB-435) was 87.2%, the inhibition at 10 µM (PRMI-8226) was 90.9% and the inhibition at 10 µM (OVCAR-3) was 92.1%. The inhibition at 10 µM (UACC-62) was 83.8%, the inhibition at 10 µM (MDA-MB-468) was > 100% and the inhibition at 10 µM (SR) was > 100%. It also gave an inhibition at 10 µM (RXF 393) of 72.1%, a CC50 [3] of 57.5 µM and a GI50 [3] of 2.63 µM. For the same molecule, the “TGI MG-MID (Full panel mean-graph midpoint)” value [3] was 14.12 µM, the GI50 (leukemia) was 3.07 µM and the CC50 (leukemia) was > 100 µM. The “TGI (total growth inhibitory)” value (leukemia) was 62.54 µM, the GI50 (COLO 205) was 2.44 µM and the GI50 (CAKI-1) was 2.01 µM. For the same molecule, the GI50 (SK-MEL-28) was 3.21 µM, the GI50 (breast cancer) was 2.51 µM and the CC50 (breast cancer) was 88.1 µM. The “TGI (total growth inhibitory)” value (breast cancer) was 8.44 µM, the GI50 (melanoma) was 2.3 µM and the CC50 (melanoma) was 39.5 µM. The “TGI (total growth inhibitory)” value (melanoma) was 6.36 µM, the GI50 (NSC lung cancer) was 2.49 µM and the CC50 (NSC lung cancer) was 73.2 µM. For the same molecule, the “TGI (total growth inhibitory)” value (NSC lung cancer) was 19.61 µM.
